Data: US20070270418A1, “Inhibitors of P38 and Methods of Using the Same” (priority 2003, published 2007)
Where two headings read alike, the source gives them in different places.

Legend:
p38α = biological target: T1, p38α (Homo sapiens, UniProt Q16539); test: p38 MAP Kinase assay, ATF2 phosphorylation (ELISA); format: biochemical; details: 40 μM ATP
T1 construct: p38 MAP Kinases are recombinant human full-length proteins with an amino-terminal GST fusion; GST (N); purchased Upstate (Charlottesville, Va.); host or cells: E. coli
Source text: Compounds of the invention are screened for the ability to inhibit ATF2 phosphorylation by p38 MAP Kinase in vitro. The ability of compounds to inhibit ATF2 phosphorylation in this in vitro assay is correlated with the inhibition of p38 MAP Kinase and TNFα expression in vivo, and is therefore an indicator of potential in vivo therapeutic activity (Raingeaud, J., et al, J. Biol. Chem., 270: 7420-7426, 1995, Brinkman, M. N., et al, J. Bil. Chem. 274: 30882-30886, 1999 and Fuchs, S. Y. et al, J. Biol. Chem. 275: 12560-12564, 2000).
All kinases and the substrate ATF2 are acquired from Upstate (Charlottesville, Va.). p38 MAP Kinases are recombinant human full-length proteins with an amino-terminal GST fusion, expressed in and purified from E. coli. ATF2 is a GST fusion protein containing amino acids 19-96 of human ATF2 expressed in E. coli. All proteins were aliquoted and stored at −80° C.
p38 MAP Kinase assays are performed using an assay buffer containing 25 mM HEPES, pH 7.5, 10 mM MgCl2, 2 mM DTT, 20 mM β-glycerophosphate, 0.1 mM Na3VO4, 40 μM ATP and 1.25 μM of ATF2, together with 6 ng of p38α protein, 12 ng p38β protein, 1.5 ng p38γ, or 0.4 ng JNK2α2. Compounds are serially diluted in DMSO and 2 μL of test compound at 25× final concentration is used. The vehicle control receives DMSO only. Test compounds are pre-incubated with 20 μl of enzyme in kinase buffer (25 mM HEPES, pH 7.5, 10 mM MgCl2, 2 mM DTT, 20 mM 3-glycerophosphate and 0.1 mM Na3VO4) at room temperature for 15 minutes. […] The reactions are incubated for 30 minutes at 37° C. and terminated by the addition of 18 μl of 200 mM EDTA. An ELISA method is used to measure the phosphorylation of ATF2 at Thr 69. High binding 96-well plates (Corning 3369) are coated with 50 μl of kinase reaction for 1 hour at 37° C. The coated plates are washed with 200 μl washing buffer (25 mM Tris HCl, pH 8.3, 192 mM glycine, 0.1% SDS and 0.05% Tween-20) three times. The plates are then washed three times with SuperBlock in TBS (Pierce, 37535). After blocking, plates are incubated with 50 μl of rabbit anti-phospho-ATF2 antibody (Cell Signaling, 9221 L, 1:500) for 30 minutes at 37° C. Plates are washed three times with washing buffer prior to incubation with 50 μl HRP-conjugated goat anti-rabbit antibody (Cell Signaling, 7074, 1:500) for 30 minutes at 37° C. Plates are then washed three times with washing buffer before incubation with 50 μl of Ultra TMB-ELISA (Pierce, 34028) for 8 minutes at room temperature. Finally, 50 μl of phosphoric acid (1 M) is added to stop reactions and plate absorbance is read at 450 nm on a SpectraMax 250 plate reader.

[1] = test system: TNFα release from THP-1 cells; test: TNFα release from LPS-stimulated THP-1 cells; format: cell-based
Source text: Compounds of the invention are screened for the ability to inhibit TNFα and IL-1β release from THP-1 cells stimulated with lipopolysaccharide (LPS) in vitro. The ability of compounds to inhibit TNFα and IL-1β release in this in vitro assay is correlated with the inhibition of p38 activity and TNFα and IL-1β expression in vivo, and is therefore an indicator of potential in vivo therapeutic activity (Lee J. C. et al, Ann. N.Y. Acad. Sci. 696: 149-170, 1993 and Nature, 372: 739-746, 1994).
THP-1 cells from ATCC (TIB202) are maintained at 37° C., 5% CO2 in RPMI 1640 media (MediaTech, Herndon, Va.) containing 4.5 g/L glucose, supplemented with 10% fetal bovine serum, 1% penicillin/streptomycin and 50 μM β-mercaptoethanol.
Test compounds are initially dissolved in RPMI media with 1% DMSO (v/v). Compounds are then serially diluted in RPMI media for all subsequent dilutions. The assay is performed under sterile conditions. THP-1 cells at a culture density of 6-8×10^5 cells/ml are collected and resuspended in the RPMI media at 10^6 cells/ml. 100 μl of resuspended cells are added to each well, which contain 100 μl of a test compound. Test compounds are prepared at twice the final concentration. Final DMSO concentration is no more than 0.5% (v/v). Cells are preincubated with compound for 30 minutes at 37° C., 5% CO2 prior to stimulation with lipopolysaccharide (LPS) (Sigma L-2880, 4 mg/ml stock in PBS). The final LPS concentration in each well is 10 or 30 μg/ml for TNFα and IL-1β release, respectively. Unstimulated control cell suspensions receive PBS vehicle only. Cell mixtures are incubated for 18 or 48 hours for TNFα and IL-1β release, respectively. 150 μl of supernatants are taken and transferred to a fresh plate and stored at −20° C. until further analysis.

[2] = LPS 10 μg/ml, 18 hours, read-out: TNFα (THP-1) IC50
[3] = Homo sapiens, THP-1, 18 h, LPS 10 μg/ml, 18 hours, read-out: TNFα (THP-1) IC50
[4] = Homo sapiens, THP-1, 18 h, read-out: TNFα (THP-1) IC50 (nM)

T1 sequence (Q16539 whole entry, the tested form may be a part): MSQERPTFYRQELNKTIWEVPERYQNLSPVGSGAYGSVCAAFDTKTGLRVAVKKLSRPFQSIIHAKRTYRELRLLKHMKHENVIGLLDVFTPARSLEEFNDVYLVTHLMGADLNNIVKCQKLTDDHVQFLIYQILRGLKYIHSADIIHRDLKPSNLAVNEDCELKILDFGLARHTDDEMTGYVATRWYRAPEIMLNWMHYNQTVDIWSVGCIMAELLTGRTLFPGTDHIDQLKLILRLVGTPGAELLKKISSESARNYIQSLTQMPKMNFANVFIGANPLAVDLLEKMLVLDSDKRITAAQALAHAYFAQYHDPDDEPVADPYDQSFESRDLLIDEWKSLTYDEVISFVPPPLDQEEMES

SMILES	IC50 (p38α) [nM]	IC50 [1, 2] [nM]	IC50 [1, 3] [nM]	IC50 [1, 4] [nM]
CC(C)[C@@H](CO)Nc1nccc(-c2c(-c3ccc(F)c(F)c3)nc3sccn23)n1 [CCLXXV]	191	43.3	–	–
CC(C)(C)OC(=O)N1CCC(Nc2nccc(-c3c(-c4ccc(F)cc4F)nc4occn34)n2)CC1 [CCLXXXIII]	1.1	–	52.7	–
CN(C)CC(C)(C)CNc1nccc(-c2c(-c3ccccc3Cl)nc3occn23)n1 [CCLXXXII]	44.8	–	88.4	–
CC(C)(C)OC(=O)N1CCC(Nc2nccc(-c3c(-c4ccc(F)cc4Cl)nc4occn34)n2)CC1 [CCLXXXIV]	1.4	–	96.2	–
Fc1ccc(-c2nc3occn3c2-c2ccnc(N[C@@H]3CN4CCC3CC4)n2)c(F)c1 [CCLXXXIX]	1.3	–	–	3.2
Cc1ccccc1-c1nc2occn2c1-c1ccnc(NC2CCN(C(=O)OC(C)(C)C)CC2)n1 [CCLXXXVIII]	4.8	–	211	–
CC(C)(C)OC(=O)N1CCC(Nc2nccc(-c3c(-c4ccccc4Cl)nc4occn34)n2)CC1 [CCLXXXVII]	8.2	–	170	–
Fc1ccc(-c2nc3occn3c2-c2ccnc(NC3CCNCC3)n2)c(Cl)c1 [CCLXXXVI]	7	–	67.3	–
Fc1ccc(-c2nc3occn3c2-c2ccnc(NC3CCNCC3)n2)c(F)c1 [CCLXXXV]	3.3	–	9.9	–
COc1cccc(-c2nc3sccn3c2-c2ccnc(N[C@H](CO)C(C)C)n2)c1 [CCLXX]	112	93.5	–	–
CC(C)(Nc1nccc(-c2c(-c3ccc(F)cc3)nc3sccn23)n1)C(O)c1ccccc1 (stereo not drawn) [CCLX]	30	–	213	–
CC(C)[C@@H](CO)Nc1nccc(-c2c(-c3ccc(F)c(F)c3)nc3sccn23)n1 [CCVII]	191	–	43.4	–
FC(F)(F)c1cccc(-c2nc3occn3c2-c2ccnc(N[C@@H]3CN4CCC3CC4)n2)c1 [CCXCIII]	4.9	–	172	–
Cc1ccccc1-c1nc2occn2c1-c1ccnc(N[C@@H]2CN3CCC2CC3)n1 [CCXCII]	16.3	–	–	47.8
FC(F)(F)c1cccc(-c2nc3occn3c2-c2ccnc(N[C@H]3CN4CCC3CC4)n2)c1 [CCXCIV]	16.4	–	90	–
CN(C)CC(C)(C)CNc1nccc(-c2c(-c3ccc(F)cc3F)nc3occn23)n1 [CCXCIX]	6.1	–	17.8	–
Clc1ccccc1-c1nc2occn2c1-c1ccnc(N[C@@H]2CN3CCC2CC3)n1 [CCXCI]	11.2	–	–	77
Cc1ccccc1-c1nc2occn2c1-c1ccnc(NCC(C)(C)CN(C)C)n1 [CCXCVIII]	52.2	–	85.1	–
CN1[C@@H]2CC[C@H]1C[C@@H](Nc1nccc(-c3c(-c4ccccc4Cl)nc4occn34)n1)C2 [CCXCVII]	6.8	–	–	24.4
CN1[C@@H]2CC[C@H]1C[C@@H](Nc1nccc(-c3c(-c4ccc(F)cc4Cl)nc4occn34)n1)C2 [CCXCVI]	3.6	–	–	15.5
Fc1ccc(-c2nc3occn3c2-c2ccnc(N[C@H]3CN4CCC3CC4)n2)c(Cl)c1 [CCXCV]	9.7	–	8.7	–
CN(C)CC(C)(C)CNc1nccc(-c2c(-c3ccc(F)cc3Cl)nc3occn23)n1 [CCXCX]	20.3	–	78.2	–
Fc1ccc(-c2nc3occn3c2-c2ccnc(N[C@@H]3CN4CCC3CC4)n2)c(Cl)c1 [CCXC]	6.8	–	72	–
Oc1ccc(C(O)CNc2nccc(-c3c(-c4ccc(F)cc4)nc4sccn34)n2)cc1 (stereo not drawn) [CCXII]	8.81	–	24.1	–
Cc1ccc(-c2nc3sccn3c2-c2ccnc(N[C@H](CO)C(C)C)n2)cc1 [CCXI]	147	–	58.9	–
Nc1ccc(CCNc2nccc(-c3c(-c4ccc(F)cc4)nc4sccn34)n2)cc1 [CCXLIII]	2.19	–	19.5	–
OC1(CNc2nccc(-c3c(-c4ccc(F)cc4)nc4sccn34)n2)CCCc2ccccc21 (stereo not drawn) [CCXLVIII]	8.39	–	20.8	–
Fc1ccc(CCNc2nccc(-c3c(-c4ccc(F)cc4)nc4sccn34)n2)cc1 [CCXLVII]	4.84	–	33.2	–
Oc1cccc(C(O)CNc2nccc(-c3c(-c4ccc(F)cc4)nc4sccn34)n2)c1 (stereo not drawn) [CCXLVI]	3.06	–	23.9	–
Fc1ccc(-c2nc3sccn3c2-c2ccnc(NCc3nc4ccccc4[nH]3)n2)cc1 [CCXL]	135	–	3300	–

Further lines, with some results ahead:

IC50 (p38α) [nM]	IC50 [1, 2] [nM]	IC50 [1, 3] [nM]	SMILES	IC50 [1, 4] [nM]
27.2	–	15.5	OC1(CNc2nccc(-c3c(-c4ccc(F)cc4)nc4sccn34)n2)CCCCC1 [CCL]	–
13.3	–	5.63	Fc1ccc(-c2nc3sccn3c2-c2ccnc(NCC3CC3)n2)cc1 [CCXIII]	–
12.1	–	5.03	C[C@H](O)CNc1nccc(-c2c(-c3ccc(F)cc3)nc3sccn23)n1 [CCXIV]	–
3.03	–	6.84	CC[C@@H](CO)Nc1nccc(-c2c(-c3ccc(F)cc3)nc3sccn23)n1 [CCXIX]	–
3.28	–	3.83	CCC(O)CNc1nccc(-c2c(-c3ccc(F)cc3)nc3sccn23)n1 (stereo not drawn) [CCXLII]	–
11.4	–	5.98	CN(C)CC(C)(C)CNc1nccc(-c2c(-c3ccc(F)cc3)nc3sccn23)n1 [CCXLIV]	–
31.6	–	20.3	Fc1ccc(-c2nc3sccn3c2-c2ccnc(NCCN3CCOCC3)n2)cc1 [CCXLIX]	–
2.81	–	5.18	CC(C)(CO)Nc1nccc(-c2c(-c3ccc(F)cc3)nc3sccn23)n1 [CCXLI]	–
82.1	–	14.2	Fc1ccc(-c2nc3sccn3c2-c2ccnc(NCCN3CCCCC3)n2)cc1 [CCXLV]	–
5.87	–	4.46	Fc1ccc(-c2nc3sccn3c2-c2ccnc(NCCc3ccncc3)n2)cc1 [CCXVIII]	–
1.19	–	7.84	CCOC(=O)N1CCC(Nc2nccc(-c3c(-c4ccc(F)cc4)nc4sccn34)n2)CC1 [CCXVII]	–
4.68	–	5.15	CCCNc1nccc(-c2c(-c3ccc(F)cc3)nc3sccn23)n1 [CCXVI]	–
2.32	–	8.58	COCC(C)Nc1nccc(-c2c(-c3ccc(F)cc3)nc3sccn23)n1 (stereo not drawn) [CCXV]	–
5.45	–	49.6	CCCC[C@@H](CO)Nc1nccc(-c2c(-c3ccc(F)cc3)nc3sccn23)n1 [CCXXII]	–
1.57	–	5.56	O[C@H]1CC[C@H](Nc2nccc(-c3c(-c4ccc(F)cc4)nc4sccn34)n2)CC1 [CCXXI]	–
